Experimental data as given in patent publication US20260001914A1, “MACROCYCLIC PEPTIDES TARGETING KRAS” (Merck Sharp & Dohme LLC, priority 2022, published 2026).
*1 amine or outer side, *2 acyl side, *3 side chain or, on linkers, in order; H or OH if unused. Where a SMILES comes first, the peptide text is derived from it. Bridges are numbered along the chain shown (N, C = ends). [ ]: non-standard residue; d: D form. X18 = CNC(=N)N(C)c1ccc(C[C@H](N[*:1])C(=O)[*:2])cc1; X76 = CN(CCC[C@@H](C(=O)[*:2])N(C)[*:1])S(C)(=O)=O; X22 = CNC(=N)N(C)CCC[C@@H](C(=O)[*:2])N(C)[*:1]; Ala(pyrimidin-5-yl) = N[C@@H](Cc1cncnc1)C(=O)O; X29 = CC(=O)N(C)CCC[C@@H](C(=O)[*:2])N(C)[*:1]; NMe3Pal(6-Me) = CN[C@@H](Cc1ccc(C)nc1)C(=O)O; X36 = CN([C@@H](Cc1cnn(C)c1)C(=O)[*:2])[*:1]; X3 = CN([C@@H](Cc1cncnc1)C(=O)[*:2])[*:1]; X26 = Cn1cc(C[C@H](N[*:1])C(=O)[*:2])cn1; X10 = CS(=O)(=O)CCCCN(CC(=O)[*:2])[*:1]; Phe(2-F) = N[C@@H](Cc1ccccc1F)C(=O)O; NMe3Pal = CN[C@@H](Cc1cccnc1)C(=O)O; X1 = O=C(C12CC(CN[*:1])(C1)C2)[*:2]; NMeAad = CN[C@@H](CCCC(=O)O)C(=O)O; NMeOrn(Me) = CNCCC[C@H](NC)C(=O)O; PhLac = O=C(O)[C@@H](O)Cc1ccccc1; 3Pal = N[C@@H](Cc1cccnc1)C(=O)O; Ahp(2) = CCCCC[C@H](N)C(=O)O; Cba = N[C@@H](CC1CCC1)C(=O)O; NMeAbu = CC[C@H](NC)C(=O)O; αMeC = C[C@](N)(CS)C(=O)O; NMeA = CN[C@@H](C)C(=O)O; Nle = CCCC[C@H](N)C(=O)O

Biological target: KRAS-G12D protein (Homo sapiens, UniProt P01116, G12D)
Sequence (P01116 1-188 isoform P01116-2 G12D): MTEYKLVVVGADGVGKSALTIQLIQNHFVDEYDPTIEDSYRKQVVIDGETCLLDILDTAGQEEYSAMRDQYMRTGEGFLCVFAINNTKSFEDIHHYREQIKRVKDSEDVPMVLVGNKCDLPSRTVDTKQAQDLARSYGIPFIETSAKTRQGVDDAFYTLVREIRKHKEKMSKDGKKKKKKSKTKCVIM
Assay: SOS-mediated nucleotide exchange assay (BODIPY-GDP / Tb-streptavidin TR-FRET)
Assay type: biochemical

| SMILES | EC50 [nM] |
| --- | --- |
| CCCCC[C@@H]1NC(=O)[C@H](Cc2ccc(OC)cc2)NC(=O)[C@H](CC2CCC2)NC(=O)[C@H](Cc2ccc(-c3cccnc3N)cc2)NC(=O)[C@H](CCCNC(=N)N)NC(=O)[C@H](Cc2ccccc2)NC(=O)CSC[C@@](C)(C(N)=O)NC(=O)[C@H](Cc2ccccc2)N(C)C1=O [compound 390, cyclo(F-R-Phe43PyNH2-cBuA-TyrOMe-Ahp-NMeF-aMeCl-ClAc)] | 9.17 |
| CCCCC[C@@H]1NC(=O)[C@H](Cc2ccc(OC)cc2)NC(=O)[C@H](CC2CCC2)NC(=O)[C@H](Cc2ccc(N3CCC[C@@H]3CN)cc2)NC(=O)[C@H](CCCNC(=N)N)NC(=O)[C@H](Cc2ccccc2)NC(=O)CSC[C@@](C)(C(N)=O)NC(=O)[C@H](Cc2ccccc2)N(C)C1=O [compound 391, cyclo(F-R~Phe4RamPyrr-cBuA-TyrOMe-Abp-NMeF-aMeCl-ClAc)] | 6.78 |
| CCCCC[C@@H]1NC(=O)[C@H](Cc2ccc(OC)cc2)NC(=O)[C@H](CC2CCC2)NC(=O)[C@H](Cc2ccc(N3CCC[C@H]3CN)cc2)NC(=O)[C@H](CCCNC(=N)N)NC(=O)[C@H](Cc2ccccc2)NC(=O)CSC[C@@](C)(C(N)=O)NC(=O)[C@H](Cc2ccccc2)N(C)C1=O [compound 392, cyclo(F-R-Phe4SamPyrr-cBuA-TyrOMe-Ahp-NMeF-aMeCl-ClAc)] | 8.59 |
| CCCCC[C@@H]1NC(=O)[C@H](Cc2ccc(OC)cc2)NC(=O)[C@H](CC2CCC2)NC(=O)[C@H](Cc2cccnc2)NC(=O)[C@H](CCCNC)N(C)C(=O)[C@H](Cc2ccccc2)NC(=O)CSC[C@@](C)(C(N)=O)NC(=O)[C@H](Cc2ccc(C)nc2)N(C)C1=O [compound 393, cyclo(F-NMeOrnMe-3Pal-cBuA-TyrOMe-Ahp-NMe3Pal4Me-aMeCl-ClAc)] ({CH2CO}-F[NMeOrn(Me)][3Pal][Cba]Y(Me)[Ahp(2)][NMe3Pal(6-Me)][αMeC]-NH2; thioether N-8) | 132 |
| CCCCC[C@@H]1NC(=O)[C@H](Cc2ccc(OC)cc2)NC(=O)[C@H](CC2CCC2)NC(=O)[C@H](Cc2cncnc2)NC(=O)[C@H](CCCNC)N(C)C(=O)[C@H](Cc2ccccc2)NC(=O)CSC[C@@](C)(C(N)=O)NC(=O)[C@H](Cc2ccc(C)nc2)N(C)C1=O [compound 394, cyclo(F-NMeOmMe-PyrimAla-cBuA-TyrOMe-Ahp-NMe3Pal4Me-aMeCl-ClAc)] ({CH2CO}-F[NMeOrn(Me)][Ala(pyrimidin-5-yl)][Cba]Y(Me)[Ahp(2)][NMe3Pal(6-Me)][αMeC]-NH2; thioether N-8) | 65.8 |
| CCCCC[C@@H]1NC(=O)[C@H](Cc2ccc(OC)cc2)NC(=O)[C@H](CC2CCC2)NC(=O)[C@H](Cc2ccc(N(C)C(=N)NC)cc2)NC(=O)[C@H](CCCNC)N(C)C(=O)[C@H](Cc2ccccc2)NC(=O)CSC[C@@](C)(C(N)=O)NC(=O)[C@H](Cc2ccc(C)nc2)N(C)C1=O [compound 395, cyclo(F-NMeOmMe-Phe4GnMeMe-cBuA-TyrOMe-Ahp-NMe3Pal4Me-aMeCl-ClAc)] ({CH2CO}-F[NMeOrn(Me)][X18][Cba]Y(Me)[Ahp(2)][NMe3Pal(6-Me)][αMeC]-NH2; thioether N-8) | 16 |
| CCCC[C@@H]1NC(=O)[C@H](Cc2cccnc2)NC(=O)[C@H](CCCN(C)C(=N)NC)N(C)C(=O)[C@H](Cc2ccccc2)OC(=O)CSC[C@@](C)(C(N)=O)NC(=O)[C@H](Cc2cccnc2)N(C)C(=O)[C@H](CCCC)NC(=O)[C@H](Cc2ccccc2F)NC1=O [compound 396, cyclo(FLac-NMeArg1MeMe-3Pal-Nle-Phe2F-Nle-NMe3Pal-aMeCl-ClAc)] ({CH2CO}-[PhLac][X22][3Pal][Nle][Phe(2-F)][Nle][NMe3Pal][αMeC]-NH2; thioether N-8) | 1.8 |
| CCCC[C@@H]1NC(=O)[C@H](Cc2ccc(N(C)C(=N)NC)cc2)NC(=O)[C@H](C)N(C)C(=O)[C@H](Cc2ccccc2)OC(=O)CSC[C@@](C)(C(N)=O)NC(=O)[C@H](Cc2cccnc2)N(C)C(=O)[C@H](CCCC)NC(=O)[C@H](Cc2ccccc2F)NC1=O [compound 397, cyclo(FLac-NMeA-Phe4GnMeMe-Nle-Phe2F-Nle-NMe3Pal-aMeCl-ClAc)] ({CH2CO}-[PhLac][NMeA][X18][Nle][Phe(2-F)][Nle][NMe3Pal][αMeC]-NH2; thioether N-8) | 2.73 |
| CCCC[C@@H]1NC(=O)[C@H](Cc2cccnc2)NC(=O)[C@H](C)N(C)C(=O)[C@H](Cc2ccccc2)OC(=O)CSC[C@@](C)(C(N)=O)NC(=O)[C@H](Cc2cccnc2)N(C)C(=O)[C@H](CCCC)NC(=O)[C@H](Cc2ccccc2F)NC1=O [compound 398, cyclo(FLac-NMeA-3Pal-Nlc-Phe2F-Nle-NMe3Pal-aMeCl-ClAc)] ({CH2CO}-[PhLac][NMeA][3Pal][Nle][Phe(2-F)][Nle][NMe3Pal][αMeC]-NH2; thioether N-8) | 3.81 |
| CCCC[C@@H]1NC(=O)[C@H](Cc2cnn(C)c2)NC(=O)[C@H](C)N(C)C(=O)[C@H](Cc2ccccc2)OC(=O)C23CC(CNC(=O)[C@H](Cc4cccnc4)N(C)C(=O)[C@H](CCCC)NC(=O)[C@H](Cc4ccccc4F)NC1=O)(C2)C3 [compound 400, cyclo(FLac-NMeA-Ala4PyzlMe-Nle-Phe2F-Nle-NMe3Pal-amBCP)] (cyclo([NMe3Pal][X1][PhLac][NMeA][X26][Nle][Phe(2-F)][Nle])) | 14 |
| CCCC[C@@H]1NC(=O)[C@H](Cc2cccnc2)NC(=O)[C@H](C)N(C)C(=O)[C@H](Cc2ccccc2)OC(=O)C23CC(CNC(=O)[C@H](Cc4cncnc4)N(C)C(=O)[C@H](CCCC)NC(=O)[C@H](Cc4ccccc4F)NC1=O)(C2)C3 [compound 401, cyclo(FLac-NMeA-3Pal-Nle-Phe2F-Nle-NMeAlaPyrim-amBCP)] (cyclo([3Pal][Nle][Phe(2-F)][Nle][X3][X1][PhLac][NMeA])) | 29 |
| CCCC[C@@H]1NC(=O)[C@H](Cc2cccnc2)NC(=O)[C@H](C)N(C)C(=O)[C@H](Cc2ccccc2)OC(=O)C23CC(CNC(=O)[C@H](Cc4ccc(C)nc4)N(C)C(=O)[C@H](CCCC)NC(=O)[C@H](Cc4ccccc4F)NC1=O)(C2)C3 [compound 402, cyclo(FLac-NMeA-3Pal-Nle-Phe2F-Nle-NMe3Pal4Me-amBCP)] (cyclo([3Pal][Nle][Phe(2-F)][Nle][NMe3Pal(6-Me)][X1][PhLac][NMeA])) | 18 |
| CCCC[C@@H]1NC(=O)[C@H](Cc2cccnc2)NC(=O)[C@H](C)N(C)C(=O)[C@H](Cc2ccccc2)OC(=O)C23CC(CNC(=O)[C@H](Cc4cnn(C)c4)N(C)C(=O)[C@H](CCCC)NC(=O)[C@H](Cc4ccccc4F)NC1=O)(C2)C3 [compound 403, cyclo(FLac-NMeA-3Pal-Nle-Phe2F-Nle-NMeAla4PyzlMe-amBCP)] (cyclo([3Pal][Nle][Phe(2-F)][Nle][X36][X1][PhLac][NMeA])) | 17 |
| CCCC[C@@H]1NC(=O)[C@H](Cc2cccnc2)NC(=O)[C@H](CC)N(C)C(=O)[C@H](Cc2ccccc2)OC(=O)C23CC(CNC(=O)[C@H](Cc4cccnc4)N(C)C(=O)[C@H](CCCC)NC(=O)[C@H](Cc4ccccc4F)NC1=O)(C2)C3 [compound 404, cyclo(FLac-NMeAbu-3Pal-Nle-Phe2F-Nle-NMe3Pal-amBCP)] (cyclo([3Pal][Nle][Phe(2-F)][Nle][NMe3Pal][X1][PhLac][NMeAbu])) | 29 |
| CCCC[C@@H]1NC(=O)[C@H](Cc2cccnc2)NC(=O)[C@H](CCCN(C)C(C)=O)N(C)C(=O)[C@H](Cc2ccccc2)OC(=O)C23CC(CNC(=O)[C@H](Cc4cccnc4)N(C)C(=O)[C@H](CCCC)NC(=O)[C@H](Cc4ccccc4F)NC1=O)(C2)C3 [compound 405, cyclo(FLac-NMeOrnAc-3Pal-Nle-Phe2F-Nle-NMe3Pal-amBCP)] (cyclo([3Pal][Nle][Phe(2-F)][Nle][NMe3Pal][X1][PhLac][X29])) | 50 |
| CCCC[C@@H]1NC(=O)[C@H](Cc2cccnc2)NC(=O)[C@H](CCCN(C)S(C)(=O)=O)N(C)C(=O)[C@H](Cc2ccccc2)OC(=O)C23CC(CNC(=O)[C@H](Cc4cccnc4)N(C)C(=O)[C@H](CCCC)NC(=O)[C@H](Cc4ccccc4F)NC1=O)(C2)C3 [compound 406, cyclo(FLac-NMeOmSuf-3Pal-Nle-Phe2F-Nle-NMe3Pal-amBCP)] (cyclo([3Pal][Nle][Phe(2-F)][Nle][NMe3Pal][X1][PhLac][X76])) | 26 |
| CCCC[C@@H]1NC(=O)[C@H](Cc2cccnc2)NC(=O)CN(CCCCS(C)(=O)=O)C(=O)[C@H](Cc2ccccc2)OC(=O)C23CC(CNC(=O)[C@H](Cc4cccnc4)N(C)C(=O)[C@H](CCCC)NC(=O)[C@H](Cc4ccccc4F)NC1=O)(C2)C3 [compound 407, cyclo(FLac-NOHmsbGly-3Pal-Nle-Phe2F-Nle-NMe3Pal-amBCP)] (cyclo([3Pal][Nle][Phe(2-F)][Nle][NMe3Pal][X1][PhLac][X10])) | 367 |
| CCCC[C@@H]1NC(=O)[C@H](Cc2cccnc2)NC(=O)[C@H](CCCC(=O)N(C)C)N(C)C(=O)[C@H](Cc2ccccc2)OC(=O)C23CC(CNC(=O)[C@H](Cc4cccnc4)N(C)C(=O)[C@H](CCCC)NC(=O)[C@H](Cc4ccccc4F)NC1=O)(C2)C3 [compound 408, cyclo(FLac-hQdm-3Pal-Nle-Phe2F-Nle-NMe3Pal-amBCP)] (cyclo([3Pal][Nle][Phe(2-F)][Nle][NMe3Pal][X1][PhLac][NMeAad](NMe2))) | 161 |
